From patent publication EP0070133B1, “Secondary phenylethanol amines, processes for their preparation and their pharmaceutical application” (priority 1981, dated 1983)
Counter-ions that a name gives are not always drawn. Like-named read-outs stand apart in the source and are kept apart here.

Legend:
[1] = tested on: Female CFLP mice; assay: Anti-hyperglycaemic activity: subcutaneous glucose load in fasted mice, area under blood glucose curve; assay type: in vivo; conditions: glucose 1 g/kg sc, 2 hour period, vs water control
Procedure: Female CFLP mice, each weighing approximately 25 g, were fasted for 24 hours prior to the study. The compounds under study were administered orally as an aqueous solution to each of 6 mice. 6 mice were given water as a control. 30 minutes later a blood sample (20 µl) was obtained from the tail for the analysis of blood glucose. Immediately after taking this blood sample, glucose (1 g/kg body weight) was administered subcutaneously to each mouse. Blood samples were then obtained from each mouse at 30 minute intervals for 120 minutes.
Compounds that produced a significant (P<0.05) reduction of blood glucose, compared with control mice given water, at any time interval, were considered active. The area under the blood glucose curve over the 2 hour period after the administration of the glucose was calculated for each compound and compared with the value for control animals.

[2] = tested on: Female CFLP mice; assay: Effect on energy expenditure and food intake of mice; assay type: in vivo; conditions: Mus musculus; for response vs control in vivo at 26.1 mg/kg / response vs control in vivo at 26.9 mg/kg / response vs control in vivo at 25.6 mg/kg / response vs control in vivo at 28.3 mg/kg / response vs control in vivo at 27.3 mg/kg / response vs control in vivo at 29.5 mg/kg / response vs control in vivo at 23.4 mg/kg / response vs control in vivo at 6.5 mg/kg / response vs control in vivo at 21.8 mg/kg / response vs control in vivo at 22.7 mg/kg / response vs control in vivo at 19.2 mg/kg: po, 21 h; for response vs control in vivo at 24.3 mg/kg: 24.3 mg/kg po; for response vs control in vivo at 24.3 mg/kg / response vs control in vivo at 23.1 mg/kg: mice, 21 hours after dosing, % of mice dosed with water; for response vs control in vivo at 23.1 mg/kg: 23.1 mg/kg po
Procedure: Female CFLP mice each weighing approximately 24 g, were given food and water ad lib before and during the experiment. The compounds were dissolved in water by addition of one mole of hydrochloric acid per mole of compound and these solutions were administered orally to each of 12 mice. A further 12 mice were dosed orally with water. The mice were placed in boxes through which air was drawn and the oxygen content of the air leaving the boxes was measured. […] The food intake of the mice was measured over this same period of 21 hours. The results are expressed as a percentage of the mean food intake or rate of energy expenditure of the mice dosed with water.

[3] = tested on: Rat hearts; assay: Cardiac activity: rat hearts perfused by the Langendorff procedure; conditions: for Emax: reference standard, maximum response, no dose given
Procedure: Rat hearts were perfused by the Langendorff procedure as follows:- • Hearts were dissected free within 30 seconds of death and reverse perfused via the aorta and coronary vessels with Krebs-Ringer bicarbonate solution (pH 7.4, 37°C) gassed with 95% oxygen:5% carbon dioxide at a flow rate between 8-12 cm^3/minute. Responses were observed after injection of drug dissolved in isotonic saline into the perfusion media.
Results are expressed as a percentage of the maximum response due to salbutamol.

[4] = read-out: Mean Energy Expenditure (%)
[5] = 10 μg added to perfusate, perfused rat heart, read-out: Heart Rate
[6] = 10 μg added to perfusate, perfused rat heart, read-out: Heart Tension
[7] = Rattus norvegicus, read-out: Heart Rate
[8] = Rattus norvegicus, read-out: Heart Tension

## CNCCOc1ccc(CC(C)NCC(O)c2cccc(C(F)(F)F)c2)cc1 (centres unmarked) [Example 1, N-[2-(4-(2-Methylaminoethoxy)phenyl)-1-methylethyll-2-hydroxy-2-(3-trifluoromethylphenyl)ethanaminedihydrochloride]
[1]; 1 μ moles/kg po
  Reduction in area under Blood glucose curve (%): 33%
[2]; [4]
  response vs control in vivo at 26.1 mg/kg: 129%
[2]; read-out: Mean Food Intake (%)
  response vs control in vivo at 26.1 mg/kg: 98%
[3]; [5]
  Emax at 0.01 mg: 0%
[3]; [6]
  Emax at 0.01 mg: 7%

## CC(Cc1ccc(OCCN(C)C)cc1)NCC(O)c1cccc(C(F)(F)F)c1.Cl.Cl (centres unmarked) [Example 2, N-[2-(4-(2-Dimethylaminoethoxy)phenyl)-1-methylethyl]-2-hydroxy-2-(3-trifluoromethylphenyl)ethanamine dihydrochloride]
[1]; 5 μ moles/kg po
  Reduction in area under Blood glucose curve (%): 49%
[2]; [4]
  response vs control in vivo at 26.9 mg/kg: 127%
[2]; read-out: Mean Food Intake (%)
  response vs control in vivo at 26.9 mg/kg: 98%
[3]; [7]
  Emax at 0.01 mg: 0%
[3]; [8]
  Emax at 0.01 mg: 0%

## CC(Cc1ccc(OCCNS(C)(=O)=O)cc1)NCC(O)c1cccc(C(F)(F)F)c1 (centres unmarked) [Example 3, N-[2-(4-(2-Methylsulphonylaminoethoxy)phenyl)-1-methylethyl]-2-hydroxy-2-(3-trifluoromethylphenyl)ethanamine]
[1]; 1 μ moles/kg po
  Reduction in area under Blood glucose curve (%): 56%
[2]; [4]
  response vs control in vivo at 25.6 mg/kg: 125%
[2]; read-out: Mean Food Intake (%)
  response vs control in vivo at 25.6 mg/kg: 83%
[3]; [5]
  Emax at 0.01 mg: 38%
[3]; [6]
  Emax at 0.01 mg: 4%

## Br.Br.CNCCOc1ccc(CC(C)NCC(O)c2ccccc2F)cc1 (centres unmarked) [Example 7, N-[2-(4-(2-Methylaminoethoxy)phenyl)-1-methylethyl]-2-hydroxy-2-(2-fluorophenyl)ethanamine dihydrobromide]
[1]; 1 μ moles/kg po
  Reduction in area under Blood glucose curve (%): 33%
[2]; [4]
  response vs control in vivo at 28.3 mg/kg: 125%
[2]; read-out: Mean Food Intake (%)
  response vs control in vivo at 28.3 mg/kg: 109%
[3]; [7]
  Emax at 0.01 mg: 73%
[3]; [8]
  Emax at 0.01 mg: 18%

## CNCCOc1ccc(CC(C)NCC(O)c2cccc(F)c2)cc1 (centres unmarked) [Example 9, N-[2-(4-(2-Methylaminoethoxy)phenyl-1-methylethyl]-2-hydroxy-2-(3-fluorophenyl)ethanaminedihydrobromide]
[1]; 1 μ moles/kg po
  Reduction in area under Blood glucose curve (%): 39%
[2]; [4]
  response vs control in vivo at 28.3 mg/kg: 129%
[2]; read-out: Mean Food Intake (%)
  response vs control in vivo at 28.3 mg/kg: 109%
[3]; [5]
  Emax at 0.01 mg: 73%
[3]; [6]
  Emax at 0.01 mg: 53%

## CNCCOc1ccc(CC(C)NCC(O)c2ccccc2)cc1 (centres unmarked) [Example 10, N-[2-(4-(2-Methylaminoethoxy)phenyl-1-methylethyl]-2-hydroxy-2-phenylethanaminedihydrobromide]
[1]; 1 μ moles/kg po
  Reduction in area under Blood glucose curve (%): 30%
[2]; [4]
  response vs control in vivo at 27.3 mg/kg: 118%
[2]; read-out: Mean Food Intake (%)
  response vs control in vivo at 27.3 mg/kg: 89%
[3]; [5]
  Emax at 0.01 mg: 14%
[3]; [6]
  Emax at 0.01 mg: 33%

## CC(Cc1ccc(OCCNCc2ccccc2)cc1)NCC(O)c1cccc(Cl)c1 (centres unmarked) [Example 13, N-[2-4-(2-Benzylaminoethoxy)phenyl)-1-methylethyl]-2-hydroxy-2-(3-chlorophenyl)ethanamine dihydrochloride monohydrate]
[1]; 1 μ moles/kg po
  Reduction in area under Blood glucose curve (%): 62%
[2]; [4]
  response vs control in vivo at 29.5 mg/kg: 139%
[2]; read-out: Mean Food Intake (%)
  response vs control in vivo at 29.5 mg/kg: 78%

## CC(Cc1ccc(OCCN2CCCCCC2)cc1)NCC(O)c1cccc(C(F)(F)F)c1 (centres unmarked) [Example 15, N-[2-(4-(2-(1-Homopiperidine)ethoxy)phenyl)-1-methylethyl]-2-hydroxy-2-(3-trifluoromethylphenyl)-ethanamine dihydrochloride]
[1]; 1 μ moles/kg po
  Reduction in area under Blood glucose curve (%): 17%
[2]; [4]
  response vs control in vivo at 26.9 mg/kg: 117%
[2]; read-out: Mean Food Intake (%)
  response vs control in vivo at 26.9 mg/kg: 77%

## CCOC(=O)NCCOc1ccc(CC(C)NCC(O)c2cccc(Cl)c2)cc1 (centres unmarked) [Example 16, N-[2-(4-(2-Ethoxycarbonylamioethoxy)phenyl)-1-methylethyl]-2-hydroxy-2-(3-chlorophenyl)ethanamine]
[1]; 1 μ moles/kg po
  Reduction in area under Blood glucose curve (%): 68%
[2]; [4]
  response vs control in vivo at 23.4 mg/kg: 141%
[2]; read-out: Mean Food Intake (%)
  response vs control in vivo at 23.4 mg/kg: 91%

## CC(Cc1ccc(OCCN)cc1)NCC(O)c1cccc(C(F)(F)F)c1.Cl.Cl.O.O (centres unmarked) [Example 19, N-[2-(4-(2-Aminoethoxy)phenyl)-1-methylethyl]-2-hydroxy-2-(3-trifluoromethylphenyl)ethanamine dihydrochloride, dihydrate]
[1]; 1 μ moles/kg po
  Reduction in area under Blood glucose curve (%): 46%
[2]; [4]
  response vs control in vivo at 27.3 mg/kg: 135%
[2]; read-out: Mean Food Intake (%)
  response vs control in vivo at 27.3 mg/kg: 94%

## CNCCOc1ccc(C[C@H](C)NC[C@H](O)c2cccc(C(F)(F)F)c2)cc1 [Example 23, N-[2-(4-(2-Methylaminoethoxy)phenyl)-1-methylethyl]-2-hydroxy-2-(3-trifluoromethylphenyl)ethanamine dihydrochloride, (RS,SR) diastereoisomer]
[1]; 2.5 μ moles/kg po
  Reduction in area under Blood glucose curve (%): 20%
[2]; [4]
  response vs control in vivo at 6.5 mg/kg: 109%
[2]; read-out: Mean Food Intake (%)
  response vs control in vivo at 6.5 mg/kg: 112%

## CNCCOc1ccc(C[C@@H](C)NC[C@H](O)c2cccc(Cl)c2)cc1 [Example 28, N-[2-(4-(2-Methylaminoethoxy)phenyl)-1-methylethyl]-2-hydroxy-2-(3-chlorophenyl)ethanamine dihydrochloride - (RR,SS) diastereoisomer]
[1]; 0.5 μ moles/kg po
  Reduction in area under Blood glucose curve (%): 42%
[2]; [4]
  response vs control in vivo at 21.8 mg/kg: 135%
[2]; read-out: Mean Food Intake (%)
  response vs control in vivo at 21.8 mg/kg: 108%

## CNCCOc1cccc(CC(C)NCC(O)c2cccc(Cl)c2)c1 (centres unmarked) [Example 29, N-[2-(3-(2-Methylaminoethoxy)phenyll-1-methylethyl]-2-hydroxy-2-(3-chlorophenyl)ethanaminedihydrochloride]
[1]; 12.5 μ moles/kg po
  Reduction in area under Blood glucose curve (%): 48%
[2]; [4]
  response vs control in vivo at 21.8 mg/kg: 123%
[2]; read-out: Mean Food Intake (%)
  response vs control in vivo at 21.8 mg/kg: 107%

## CC(COc1ccc(CC(C)NCC(O)c2cccc(C(F)(F)F)c2)cc1)NCc1ccccc1 (centres unmarked) [Example 31, N-[2-(4-(2-Benzylaminopropoxy)phenyl)-1-methylethyl]-2-hydroxy-2-(3-trifluoromethylphenyl)ethanamine]
[1]; 50 μ moles/kg po
  Reduction in area under Blood glucose curve (%): 45%
[2]; [4]
  response vs control in vivo at 24.3 mg/kg: 100%
[2]; read-out: Mean Food Intake (%)
  response vs control in vivo at 24.3 mg/kg: 59%

## CN(C)CCOc1ccc(CCC(C)(C)NCC(O)c2ccccc2)cc1.Cl.Cl (centres unmarked) [Example 35, N-[3-(4-(2-Dimethylaminoethoxy)phenyl)-1,1-dimethylpropyl]-2-hydroxy-2-phenylethanamine dihydrochloride]
[1]; 250 μ moles/kg po
  Reduction in area under Blood glucose curve (%): 18%
[2]; [4]
  response vs control in vivo at 23.1 mg/kg: 95%
[2]; read-out: Mean Food Intake (%)
  response vs control in vivo at 23.1 mg/kg: 83%

## CCN(CC)CCOc1ccc(CC(C)NCC(O)c2cccc(C(F)(F)F)c2)cc1.O=C(O)/C=C/C(=O)O (centres unmarked) [Example 36, N-[2-(4-(2-Diethylaminoethoxy)phenyl)-1-methylethyl]-2-hydroxy-2-(3-trifluoromethylphenyl)ethanamine fumarate]
[1]; 50 μ moles/kg po
  Reduction in area under Blood glucose curve (%): 56%
[2]; [4]
  response vs control in vivo at 22.7 mg/kg: 132%
[2]; read-out: Mean Food Intake (%)
  response vs control in vivo at 22.7 mg/kg: 78%

## CC(Cc1ccc(OCC#N)cc1)NCC(O)c1cccc(Cl)c1 (centres unmarked) [Example 38, N-[2-(4-Cyanomethoxylphenyl)-1-methylethyl]-2-hydroxy-2-(3-chlorophenyl)ethanamine]
[1]; 0.5 μ moles/kg po
  Reduction in area under Blood glucose curve (%): 63%
[2]; [4]
  response vs control in vivo at 19.2 mg/kg: 132%
[2]; read-out: Mean Food Intake (%)
  response vs control in vivo at 19.2 mg/kg: 81%

## CC(C)(C)NCC(O)c1ccc(O)c(CO)c1 (centres unmarked) [Salbutamol, reference compound]
[3]; perfused rat heart, read-out: Heart Rate
  Emax: 100%
[3]; perfused rat heart, read-out: Heart Tension
  Emax: 100%
